Source: ChEMBL document CHEMBL1201862, “PubChem BioAssay data set” (2004)
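Cultured in 96-well plates, cells were exposed to test compound for 48 hours across five concentrations. GI50 marks 50% less growth.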 Activity calls are given as the source filed them. Cut-off read from the data, not from the text of the source: active = GI50 up to about 1.1 µM and inactive = higher.

What was measured:
Experiment in all cases: inhibition of tumour cell growth, NCI panel, 48 h
HL-60 = tested on: HL-60
786-0 = tested on: 786-0
MOLT-4 = tested on: MOLT-4
T47D = tested on: T47D
SNB-19 = tested on: SNB-19
HOP-62 = tested on: HOP-62
HT-29 = tested on: HT-29
SF-295 = tested on: SF-295
OVCAR-5 = tested on: OVCAR-5
M14 = tested on: M14
NCI-H23 = tested on: NCI-H23
PC-3 = tested on: PC-3
NCI/ADR-RES = tested on: NCI/ADR-RES
UACC-257 = tested on: UACC-257
A549 = tested on: A549
SK-MEL-2 = tested on: SK-MEL-2
OVCAR-3 = tested on: OVCAR-3
MDA-MB-231 = tested on: MDA-MB-231
DU-145 = tested on: DU-145
HCT-116 = tested on: HCT-116
MCF7 = tested on: MCF7
TK-10 = tested on: TK-10
SF-268 = tested on: SF-268
NCI-H226 = tested on: NCI-H226
RPMI-8226 = tested on: RPMI-8226
COLO 205 = tested on: COLO 205
CAKI-1 = tested on: CAKI-1
IGROV-1 = tested on: IGROV-1
OVCAR-8 = tested on: OVCAR-8
SK-MEL-5 = tested on: SK-MEL-5
HOP-92 = tested on: HOP-92
SNB-75 = tested on: SNB-75
SW-620 = tested on: SW-620
HCT-15 = tested on: HCT-15
NCI-H460 = tested on: NCI-H460
U-251 = tested on: U-251
SR = tested on: SR
SF-539 = tested on: SF-539
MDA-MB-435 = tested on: MDA-MB-435
UACC-62 = tested on: UACC-62
BT-549 = tested on: BT-549
UO-31 = tested on: UO-31
ACHN = tested on: ACHN
RXF 393 = tested on: RXF 393
K562 = tested on: K562
NCI-H522 = tested on: NCI-H522
SK-MEL-28 = tested on: SK-MEL-28
OVCAR-4 = tested on: OVCAR-4
KM12 = tested on: KM12
Malme-3M = tested on: Malme-3M
SK-OV-3 = tested on: SK-OV-3
Hs-578T = tested on: Hs-578T
LOX IMVI = tested on: LOX IMVI
CCRF-CEM = tested on: CCRF-CEM
SN12C = tested on: SN12C
A498 = tested on: A498
HCC 2998 = tested on: HCC 2998
MDA-N = tested on: MDA-N
EKVX = tested on: EKVX

Measured: GI50

O=[N+]([O-])c1ccc(/C=C(/c2ccc([N+](=O)[O-])o2)S(=O)(=O)c2ccccc2)cc1
inactive: HL-60 17.5 µM | 786-0 > 100 µM | MOLT-4 16.8 µM | T47D > 100 µM | SNB-19 73.5 µM | HOP-62 50.6 µM | HT-29 41.1 µM | SF-295 > 100 µM | OVCAR-5 > 100 µM | M14 56.2 µM | NCI-H23 59 µM | PC-3 > 100 µM | NCI/ADR-RES 47.5 µM | UACC-257 29.4 µM | A549 > 100 µM | SK-MEL-2 > 100 µM | OVCAR-3 97.9 µM | MDA-MB-231 14.3 µM | DU-145 35.5 µM | HCT-116 30.9 µM | MCF7 40.8 µM | TK-10 > 100 µM | SF-268 95.9 µM | NCI-H226 13.4 µM | RPMI-8226 13.7 µM | COLO 205 47.6 µM | CAKI-1 > 100 µM | IGROV-1 75.5 µM | OVCAR-8 29.4 µM | SK-MEL-5 13.9 µM | HOP-92 > 100 µM | SNB-75 > 100 µM | SW-620 52 µM | NCI-H460 > 100 µM | U-251 73.5 µM | SR 16.4 µM | SF-539 33.7 µM | MDA-MB-435 60.8 µM | UACC-62 22.2 µM | BT-549 36.1 µM | UO-31 > 100 µM | ACHN > 100 µM | RXF 393 > 100 µM | K562 36.2 µM | NCI-H522 39.4 µM | SK-MEL-28 > 100 µM | OVCAR-4 57 µM | KM12 41.1 µM | Malme-3M 25.2 µM | SK-OV-3 > 100 µM | Hs-578T 26.1 µM
26.9 µM: HCT-15

CC(CC(C)[C@H]1CCC2[C@H]3C(CC(=O)[C@@]21C)[C@@]1(C)CCC(O)C[C@H]1C[C@@H]3O)C(=O)O (stereo partly drawn)
77.3 µM: HCT-15
inactive: HL-60 46.8 µM | LOX IMVI > 100 µM | 786-0 > 100 µM | MOLT-4 46.2 µM | T47D > 100 µM | SNB-19 > 100 µM | HOP-62 > 100 µM | HT-29 > 100 µM | CCRF-CEM 43.4 µM | OVCAR-5 > 100 µM | M14 > 100 µM | NCI-H23 > 100 µM | PC-3 > 100 µM | NCI/ADR-RES > 100 µM | UACC-257 > 100 µM | A549 > 100 µM | SK-MEL-2 > 100 µM | MDA-MB-231 > 100 µM | DU-145 > 100 µM | HCT-116 > 100 µM | SN12C > 100 µM | MCF7 92.3 µM | A498 > 100 µM | TK-10 > 100 µM | SF-268 > 100 µM | NCI-H226 > 100 µM | HCC 2998 > 100 µM | RPMI-8226 41.3 µM | COLO 205 > 100 µM | CAKI-1 > 100 µM | IGROV-1 > 100 µM | OVCAR-8 > 100 µM | MDA-N > 100 µM | HOP-92 > 100 µM | SNB-75 > 100 µM | SW-620 87.1 µM | NCI-H460 61.8 µM | U-251 > 100 µM | SR 18.3 µM | SF-539 > 100 µM | MDA-MB-435 > 100 µM | UACC-62 > 100 µM | BT-549 > 100 µM | UO-31 58.9 µM | ACHN > 100 µM | RXF 393 > 100 µM | K562 34.7 µM | NCI-H522 > 100 µM | SK-MEL-28 > 100 µM | OVCAR-4 > 100 µM | KM12 > 100 µM | Malme-3M > 100 µM | EKVX > 100 µM

O=C1CCCCC/C1=C\c1cccc(F)c1
39.8 µM: HCT-15
inactive: HL-60 17.1 µM | 786-0 > 100 µM | MOLT-4 24.8 µM | T47D > 100 µM | SNB-19 > 100 µM | HOP-62 > 100 µM | HT-29 60.5 µM | CCRF-CEM 24.3 µM | SF-295 > 100 µM | OVCAR-5 > 100 µM | M14 43.4 µM | PC-3 > 100 µM | NCI/ADR-RES > 100 µM | UACC-257 59 µM | A549 > 100 µM | SK-MEL-2 > 100 µM | OVCAR-3 > 100 µM | MDA-MB-231 > 100 µM | DU-145 > 100 µM | HCT-116 54.6 µM | SN12C > 100 µM | MCF7 64.9 µM | A498 > 100 µM | TK-10 62.5 µM | SF-268 82.4 µM | HCC 2998 59.8 µM | RPMI-8226 19.8 µM | COLO 205 > 100 µM | CAKI-1 65.9 µM | IGROV-1 58.9 µM | OVCAR-8 > 100 µM | SK-MEL-5 66.7 µM | MDA-N 62.5 µM | SNB-75 > 100 µM | SW-620 83.8 µM | NCI-H460 54.5 µM | U-251 48.1 µM | SR 13.5 µM | SF-539 > 100 µM | MDA-MB-435 55.2 µM | UACC-62 67.3 µM | BT-549 51.9 µM | UO-31 57.7 µM | ACHN 35.6 µM | RXF 393 > 100 µM | K562 49.5 µM | SK-MEL-28 > 100 µM | KM12 59.2 µM | Malme-3M > 100 µM | SK-OV-3 > 100 µM | EKVX 73.8 µM
